The record followed here is US20050288347A1, “Certain triazole-based compounds, compositions, and uses thereof” (priority 2004, published 2005).

SMILES strings stand for the structures. “Also recorded” adds a separate entry of the source.

The first assay addresses protein kinase. The assay can be described thus: HTS ATP-utilizing enzyme assay, off-chip mobility-shift format (Caliper HTS 250). The assay is classed as biochemical, human. The following applies: kinase(s) for which the compound exhibits protein kinase inhibitory activity; test compound 10 μM; active = greater than three-sigma from the mean activity of inactive compounds. The method in brief:
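Kinase reactions ran 2.5 h at 20 to 22 °C with test compound at 10 μM, in a HEPES pH 7.5 master buffer containing Triton X-100 and BSA. Peptide substrate and phosphorylated product separated by mobility shift; inhibition normalized to DMSO (0%) and EDTA (100%) controls, with three-sigma thresholds for hits.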
In the case of `COC(=O)c1sc(NC(=O)CSc2nnc(-c3ccco3)n2C)nc1C`, the Kinase result is “GSK3-β; also recorded: GSK3-α”.
Same read-out and setting: the same measure for `Cc1cc(OCc2nnc(SCC(=O)O)n2Cc2ccccc2)ccc1Cl`: “HCK”; for `CCOC(=O)CSc1nnc(-c2ccc(O)cc2)n1Cc1ccco1`: “GSK3-β; also recorded: GSK3-α”; for `Fc1ccc(NCc2nnc(S)n2Cc2ccccc2)cc1` [4-benzyl-5-((4-fluorophenylamino)methyl)-4H-1,2,4-triazole-3-thiol]: “CHEK2”.
Take `Cn1c(SCC(=O)c2ccc3c(c2)OCCO3)nnc1C1CC1`: the Kinase entry was “AURORA-A and FYN”.
For the molecule `COc1ccc(-n2c(SC(C)C(=O)O)nnc2-c2ccc(NC(=O)c3ccccc3)cc2)cc1` (stereo not drawn), the Kinase entry is on record as “CHEK2; also recorded: AURORA-A”.
In the case of `Cc1cccc(NCc2nnc(S)n2-c2ccccc2)c1` [5-((m-toluidino)methyl)-4-phenyl-4H-1,2,4-triazole-3-thiol], the Kinase result was “GSK3-α”.
For `Cc1nnc(SCC(=O)Nc2cccc(N)c2)n1-c1ccccc1`, the Kinase result was “FYN”.
For `N#CCSc1nnc(-c2ccccc2)[nH]1` [2-(5-phenyl-4H-1,2,4-triazol-3-ylthio)acetonitrile], the Kinase result was “DYRK2; also recorded: FLT-3; also recorded: AURORA-A”.
`NC(=O)CSc1nnc(-c2ccc(S(=O)(=O)N3CCCCC3)cc2)[nH]1` [2-(5-(4-(piperidin-1-ylsulfonyl)phenyl)-4H-1,2,4-triazol-3-ylthio)acetamide]: the Kinase result is recorded as “GSK3-β; also recorded: AURORA-A; also recorded: GSK3-α”.
The same measure, in the same setting: the same measure for `COc1ccccc1-c1nnc(S)n1C` [5-(2-methoxyphenyl)-4-methyl-4H-1,2,4-triazole-3-thiol]: “CDK2-cyclinE”.
The same measure, in the same setting: the same measure for `Cn1c(SCC(=O)OC2CCCCC2)nnc1-c1ccc(O)cc1`: “GSK3-α”; for `CCn1c(SCC(=O)N2CCc3ccccc3C2)nnc1-c1cc2ccccc2cc1O`: “DAPK1; also recorded: AURORA-A”; for `COc1ccc(NCc2nnc(SCC(=O)Nc3ccc(C(C)=O)cc3)n2C)cc1`: “PDGFRR-α and FLT-3 and FYN”.
As to `CCOC(=O)CN(C(=O)CSc1nnc(-c2ccncc2)n1Cc1ccco1)c1cccc([N+](=O)[O-])c1`, the Kinase result was “FYN and GSK3-α”.
In the case of `CCn1c(S)nnc1CCc1nc2ccccc2[nH]1` [5-(2-(1H-benzo[d]imidazol-2-yl)ethyl)-4-ethyl-4H-1,2,4-triazole-3-thiol], the Kinase entry was “GSK3-β; also recorded: GSK3-α”.
Still for that read-out and setting: to `COC(=O)c1ccccc1NC(=O)CSc1nnc(CNc2cccc(Cl)c2)n1C` belongs “AURORA-A”; to `Cn1c(Cc2ccccc2)nnc1SCC(N)=O` [2-(5-benzyl-4-methyl-4H-1,2,4-triazol-3-ylthio)acetamide], “HCK”; to `CCn1c(SCC(=O)Nc2nc3c(s2)CCCC3)nnc1-c1cc2ccccc2cc1O`, “AURORA-A; also recorded: CDK2-cyclinE”.
On to `O=C(CSc1nnc(-c2ccc(O)cc2)n1-c1cccc(Cl)c1)Nc1ccccc1`, for which the Kinase entry is “GSK3-α”.
As to `O=C(CSc1nnc(-c2ccc(O)cc2)n1Cc1ccco1)Nc1nccs1`, the Kinase entry is “GSK3-β and GSK3-α and MSK2”.
With `Cn1c(S)nnc1-c1ccc(NC(=O)c2ccccc2)cc1` [N-(4-(5-mercapto-4-methyl-4H-1,2,4-triazol-3-yl)phenyl)benzamide], the Kinase entry is “GSK3-α; also recorded: CHEK2”.
On the same count and under the same terms, to `CCOC(=O)c1ccc(NC(=O)CSc2nnc(C)n2CCOC)cc1` belongs “AKT1”.
Turning to `O=C(CSc1nnc(Cc2ccccc2)[nH]1)c1ccc2c(c1)OCCO2`, the Kinase entry is given as “GSK3-α”.
On to `CCn1c(SCC(=O)Nc2nccs2)nnc1-c1ccc(S(=O)(=O)N2CCCC2)cc1`, for which the Kinase entry is given as “GSK3-β; also recorded: GSK3-α”.
As to `COc1cccc(-n2c(SCC(=O)NC(C)(C)C)nnc2-c2cccnc2)c1`, the Kinase entry is on record as “AURORA-A”.
With `Fc1ccc(NCc2nnc(S)n2-c2ccccc2)cc1` [5-((4-fluorophenylamino)methyl)-4-phenyl-4H-1,2,4-triazole-3-thiol], the Kinase entry is on record as “AURORA-A”.
As for `Cc1ccc(-n2c(SCC(=O)N3CCCCC3)nnc2-c2ccncc2)cc1`, the Kinase result is “FYN”.
On the same count and under the same terms, to `Cc1nnc(SCC(N)=O)n1-c1ccccc1` [2-(5-methyl-4-phenyl-4H-1,2,4-triazol-3-ylthio)acetamide] belongs “DYRK2”; to `O=C(O)CSc1nnc(-c2ccc([N+](=O)[O-])cc2)[nH]1` [2-(5-(4-nitrophenyl)-4H-1,2,4-triazol-3-ylthio)acetic acid], “GSK3-α; also recorded: GSK3-β; also recorded: DYRK2”; to `CCOc1ccc(NCc2nnc(SCC(=O)Nc3ccccc3Br)n2-c2ccccc2)cc1`, “PDGFRR-α and FYN and FLT-3”.
For the molecule `CCOc1ccc(NC(=O)CSc2nnc(-c3ccc(O)cc3)n2-c2ccccc2)cc1`, the Kinase entry is on record as “HCK”.
Regarding `Oc1ccc(-c2nnc(S)n2-c2ccccc2)cc1` [4-(5-mercapto-4-phenyl-4H-1,2,4-triazol-3-yl)phenol], the Kinase result is “CDK5 and GSK3-α and CDK2-cyclinA”.
As for `CCn1c(SCC(=O)N2CCOCC2)nnc1-c1ccc(S(=O)(=O)N2CCCCC2)cc1`, the Kinase entry is recorded as “PAK2”.
Consider `CCn1c(CNc2ccc(OC)cc2)nnc1SCC(=O)Nc1ccccc1C(F)(F)F`, for which the Kinase result is “FYN and PDGFRR-α and FLT-3”.
The same measure, in the same setting: the same measure for `N#CCSc1nnc(-c2ccc(O)cc2)n1Cc1ccccc1` [2-(4-benzyl-5-(4-hydroxyphenyl)-4H-1,2,4-triazol-3-ylthio)acetonitrile]: “GSK3-β; also recorded: GSK3-α”.
The same measure, in the same setting: the same measure for `Cc1cccc(-c2nnc(SCC(=O)c3ccccc3)[nH]2)c1` [1-phenyl-2-(5-m-tolyl-4H-1,2,4-triazol-3-ylthio)ethanone]: “FLT-3; also recorded: AURORA-A”; for `O=C(CSc1nnc(CSc2nc3ccccc3s2)n1-c1ccccc1)N1CCN(CCO)CC1`: “HCK”.

The assay is the same for the next values; noted with them: test compound 10 μM; active = activity greater than three-sigma from the mean of the predominately inactive population for that enzyme.
For the molecule `O=[N+]([O-])c1ccc(-c2nnc(CSc3nncn3-c3ccccn3)o2)cc1`, the “protein kinase against which the compound exhibits inhibitory activity (Table 3)” value was “PDGFRR-α”.
Take `c1ccc(OCc2nnc(SCC3CC3)[nH]2)cc1` [3-(cyclopropylmethylthio)-5-(phenoxymethyl)-4H-1,2,4-triazole]: the “protein kinase against which the compound exhibits inhibitory activity (Table 3)” value is “GSK3-α; also recorded: GSK3-β; also recorded: AURORA-A”.
Take `Cc1cccc(OCc2nnc(SCC(=O)N3c4ccccc4CCc4ccccc43)n2C)c1C`: the “protein kinase against which the compound exhibits inhibitory activity (Table 3)” value was “MSK2”.
Take `Cc1cccc(-c2nnc(SCC3CCCCC3)[nH]2)c1` [3-(cyclohexylmethylthio)-5-m-tolyl-4H-1,2,4-triazole]: the “protein kinase against which the compound exhibits inhibitory activity (Table 3)” value is given as “AURORA-A; also recorded: c-TAK1”.
On the same count and under the same terms, the same measure for `Cc1nnc(SCC2CCCCC2)[nH]1` [3-(cyclohexylmethylthio)-5-methyl-4H-1,2,4-triazole]: “AURORA-A; also recorded: GSK3-α”; for `Cn1c(SCc2ccc(Cl)cc2)nnc1-c1ccncc1` [4-(5-(4-chlorobenzylthio)-4-methyl-4H-1,2,4-triazol-3-yl)pyridine]: “AURORA-A and MSK1”; for `c1ccc(CCn2c(SCc3ccccc3)nnc2-c2cccnc2)cc1` [3-(5-(benzylthio)-4-phenethyl-4H-1,2,4-triazol-3-yl)pyridine]: “MSK1”.
With `COc1ccc(NCc2nnc(SCCN3CCCCC3)n2-c2ccccc2OC)cc1`, the “protein kinase against which the compound exhibits inhibitory activity (Table 3)” value was “FYN and PDGFRR-α and FLT-3”.
As to `CCCCSc1nnc(-c2ccc(OC)cc2)[nH]1` [3-(butylthio)-5-(4-methoxyphenyl)-4H-1,2,4-triazole], the “protein kinase against which the compound exhibits inhibitory activity (Table 3)” value is on record as “AURORA-A; also recorded: FLT-3; also recorded: GSK3-α”.
`Oc1ccc(-c2nnc(SCCN3CCOCC3)n2-c2ccccc2)cc1` [4-(5-(2-morpholinoethylthio)-4-phenyl-4H-1,2,4-triazol-3-yl)phenol]: the “protein kinase against which the compound exhibits inhibitory activity (Table 3)” value is given as “GSK3-α”.
The same measure, in the same setting: to `CCCCSc1nnc(-c2ccc(F)cc2)[nH]1` [3-(butylthio)-5-(4-fluorophenyl)-4H-1,2,4-triazole] belongs “AURORA-A; also recorded: FLT-3; also recorded: DYRK2”.
Same read-out and setting: to `CCC(c1ccccc1)c1nnc(SCc2ccccc2)n1CCc1ccc(C)cc1` (stereo not drawn) [3-(benzylthio)-4-(4-methylphenethyl)-5-(1-phenylpropyl)-4H-1,2,4-triazole] belongs “c-TAK1”; to `Cc1nn(-c2ccccc2)c2sc(-c3nnc(SCCN4CCOCC4)n3C)cc12`, “GSK3-α; also recorded: GSK3-β; also recorded: DAPK1”.
Regarding `Cc1nnc(SCc2ccccc2)[nH]1` [3-(benzylthio)-5-methyl-4H-1,2,4-triazole], the “protein kinase against which the compound exhibits inhibitory activity (Table 3)” value is recorded as “AURORA-A; also recorded: DYRK2”.
For `CCn1c(COc2ccc(C)cc2)nnc1SCc1ccc(C)cc1` [4-ethyl-3-(4-methylbenzylthio)-5-(p-tolyloxymethyl)-4H-1,2,4-triazole], the “protein kinase against which the compound exhibits inhibitory activity (Table 3)” value is on record as “AURORA-A”.
Same read-out and setting: the same measure for `COc1ccc(-c2nnc(SCc3cccc(I)c3)[nH]2)cc1` [3-(3-iodobenzylthio)-5-(4-methoxyphenyl)-4H-1,2,4-triazole]: “AURORA-A”; for `COC(=O)c1ccc(CSc2nnc(C)[nH]2)cc1` [methyl 4-((5-methyl-4H-1,2,4-triazol-3-ylthio)methyl)benzoate]: “DYRK2; also recorded: AURORA-A”; for `O=C(CSc1nnc(-c2ccccc2)n1Cc1ccccc1)NNC(=O)c1ccccc1O`: “FYN and CSK”.
As to `COc1ccc(-c2nnc(SCc3ccccc3C#N)[nH]2)cc1` [2-((5-(4-methoxyphenyl)-4H-1,2,4-triazol-3-ylthio)methyl)benzonitrile], the “protein kinase against which the compound exhibits inhibitory activity (Table 3)” value is “AURORA-A; also recorded: CHEK2; also recorded: GSK3-α”.
